This note sets out measurements from ChEMBL document CHEMBL3507680, “University of Dundee, Gates Library screen for HepG2 cell viability”.

A short description of this data set: Human HepG2 cell viability assay in 384 well format. The data set is classed as toxicity, cell-based. Also on record: dose 125 nL, time 70.5 hour; concentration not given beside the values. The settings on record: HepG2 cells, read-out: Inhibition.
`CC[C@@]1(O)CCN(C(=O)c2cccc3cc(C)oc23)C[C@H]1O`: the cytotoxicity at 70.5 h turned out to be 6.9%. In the case of `CC(C)c1cc(C2CCN(C(=O)Cn3cncn3)CC2)[nH]n1` it was 43.3%. The value for `CC1(C)Cc2nc(C(C)(C)C)ncc2C(NC(=O)Cc2nnn[nH]2)C1` (stereo not given) was 52.3%; that for `CN1CCN(Cc2c[nH]cn2)CC12CCC(=O)N(CC1CC1)CC2` (stereo not given) was 6.57%; that for `O=C(C1CC12CCC2)N1CCC(n2cc(-c3ccsc3)nn2)CC1` (stereo not given) was -9.29%. Regarding `O=C(CCn1cncn1)N1CCC2(CC1)[C@H](O)C[C@@H]2OCCO`, the cytotoxicity at 70.5 h is 0.165%. With `CNc1nc(C(=O)N2CCC3(CCCN(CCOC)C3=O)C2)cs1` (stereo not given), the cytotoxicity at 70.5 h is -3.96%. As for `N#Cc1ccc(N2CCC(c3nccn3Cc3cscn3)CC2)nc1`, the cytotoxicity at 70.5 h was -0.885%. The value for `Cc1nc(CN2CCCC(CCc3ccccc3C)C2)c[nH]1` (stereo not given) was 19%; that for `COc1ccccc1OCCCn1c(C)c(C)oc1=O` was 2.36%; that for `COc1ccccc1OCCCc1cc(C)nc(N)n1` was -7.2%. Turning to `Cc1cc(C(=O)N2C[C@H]3CC[C@@H]2CN(Cc2ccccn2)C3)nc(C)n1`, the cytotoxicity at 70.5 h was -0.674%. In the case of `O=C(NCCC1CCCCO1)c1cc(COc2ccccc2F)[nH]n1` (stereo not given) it was -4.49%; in that of `COc1cc(NCCCSc2nnc(C)s2)ncn1`, 12%; in that of `CN(C)c1ccccc1C(=O)N1C[C@@H](CN2CCC(O)CC2)[C@@H](CO)C1`, 1.37%.

As for `Cc1ccsc1CN(CCCC(F)(F)F)Cc1ccccn1`, the cytotoxicity at 70.5 h was -10.1%. In the case of `Cc1cc(-c2nn(C)c(Cl)c2CN2CCC3(CC2)[C@H](O)C[C@@H]3O)no1`, the cytotoxicity at 70.5 h was -4.3%. In the case of `CN(C)C(=O)c1ccc(-c2cccc3c2CCNC3)cc1` it was -18%; in that of `COc1cc(CNc2nc3c(c(=O)[nH]2)CCNC3)cc(OC)c1OC`, -6.47%. The value for `CC(C)=CCC1(C(=O)O)CCCN(c2cc(N)ncn2)C1` (stereo not given) was 6.26%; that for `Cc1ccc(C(C)NCc2cn(CCC(N)=O)c3ccccc23)cc1C` (stereo not given) was -3.87%; that for `Cc1nn(C)c2nc(N3CCN(Cc4nccn4C)CC3)sc12` was -8.28%.

Take `CCCc1nc(CN(CC)C(=O)c2ccc3[nH]cnc3c2)no1`: the cytotoxicity at 70.5 h came to 23.9%. In the case of `CCN(Cc1noc(CC(C)C)n1)Cc1ncccc1C(=O)O` it was -3.41%.

For the molecule `CCc1nnc(CNC2CCN(c3ncnc4c(C)csc34)CC2)s1`, the cytotoxicity at 70.5 h was -1.72%. In the case of `COc1nccnc1N1CCN(Cc2cccc(C)c2)C(=O)C1` it was 7%; in that of `CCC[C@H]1CN(S(C)(=O)=O)C[C@@H]1NC(=O)CCCn1ccnc1`, 1.51%. In the case of `O=C(NCCCn1cccn1)C1CCC(=O)N(CC2CCCCC2)C1` (stereo not given) it was -2.08%. In the case of `CCC(CO)N(Cc1ccsc1)Cc1ccccc1C#N` (stereo not given) it was -11.3%; in that of `COc1cccc(-c2nc3c([nH]2)CC(C)(C)CNC3=O)c1OC`, -9.59%; in that of `CN(CCc1ccccn1)C(=O)C1Cc2ccccc2CN1C` (stereo not given), -10.6%.

`CC(C)c1cc(-c2cnn(C)c2C2CC2)c(C#N)c(N)n1`: the cytotoxicity at 70.5 h was -0.849%. Regarding `CCOCCC(=O)N1C[C@H]2CC[C@@H]1CN(Cc1ccncc1)C2`, the cytotoxicity at 70.5 h was -11.6%. In the case of `Nc1ccnc(N2CCC(Cc3ccccc3Cl)(C(=O)O)CC2)n1` it was 1.15%; in that of `COC(=O)c1ccc(-c2noc(CN(CCO)Cc3cccs3)n2)cc1`, -10.2%; in that of `COCCn1ccnc1C1CCCN(c2ncnc3c(C)csc23)C1` (stereo not given), 23.8%. The value for `Cc1ccc(C(=O)N2CC(c3cccnc3)C2)cc1N1CCNC1=O` was -7.03%; that for `CN(C)[C@H]1CCCCN(C(=O)COCc2nc3cc(F)ccc3[nH]2)C1` was 15%; that for `COCC(=O)N1CCCN(Cc2c(C)nc3ccc(Cl)cn23)CC1` was 2.35%. The value for `CN1CCc2[nH]nc(C(=O)N3CCC4(CCCO4)CC3)c2C1` was -0.824%. Regarding `COc1ccccc1OC1CCN(C(=O)c2c[nH]c(=O)[nH]c2=O)CC1`, the cytotoxicity at 70.5 h is -4.88%. The value for `O=C(COCC(F)(F)C(F)F)N1CCC(c2ncc[nH]2)CC1` was -5.35%. With `COCCN1CC(C(=O)N(CCN(C)C)Cc2ccc(C)s2)CC1=O` (stereo not given), the cytotoxicity at 70.5 h was -4.05%.

As to `CN1CCN2CCN(Cc3cnc(NCc4ccccc4)nc3)CC2C1` (stereo not given), the cytotoxicity at 70.5 h was found to be 24%. In the case of `CCC(CC)n1nc(C)cc1NC(=O)C1CCCO1` (stereo not given) it was -8.67%; in that of `CC(NCc1cc(O)c2cccc(F)c2n1)c1ccc(S(C)(=O)=O)cc1` (stereo not given), -12.6%. The value for `Cn1cc(CN2CC[C@@H]3[C@@H](CCC(=O)N3CCc3ccccc3)C2)cn1` was -0.863%; that for `Cc1cnc(C(=O)N2CCN(C(=O)C(C)C)[C@@H]3CS(=O)(=O)C[C@@H]32)cn1` was -6.02%. In the case of `CCNCCOc1ccc(-c2cc(N)nc3[nH]ccc23)cc1` it was -10.1%; in that of `CC(=O)NCCC(=O)N(C/C=C/c1ccccc1)CCO`, 24%; in that of `COc1cc(N2CCCC(c3nccn3Cc3cccnc3)C2)ncn1` (stereo not given), -14.5%.

As for `CSc1nnc(CC2CCN(C(=O)Cc3ccncc3)CC2)n1C`, the cytotoxicity at 70.5 h is -16.8%. The value for `Cc1nnc(CNC(=O)[C@@H]2C[C@H](NC(=O)C(C)(C)C)CN2C)[nH]1` was -9.08%; that for `O=C(O)c1ccccc1-c1c(-c2ccccc2)ncn1C[C@H]1CCCN1` was -3.04%; that for `CCN1CC(CN(C)Cc2nc(-c3ccc(C)o3)oc2C)CC1=O` (stereo not given) was -6.14%.

Take `Cc1cc(C(=O)N2CC(O)CO2)c2cccc(C)c2n1` (stereo not given): the cytotoxicity at 70.5 h is -13%. In the case of `CC(C)Oc1ccc2c(NC(=O)[C@H](C)O)nn(CC(F)(F)F)c2c1` it was -16.3%; in that of `COCC[C@]1(O)CCN(Cc2ccccn2)C[C@H]1C`, -0.199%; in that of `CN1CCCC(CCC(=O)NCCc2nnc(N)s2)C1` (stereo not given), 9.25%. In the case of `CCCc1nc(N(C)CCN2CCCCCC2)c2cnn(C)c2n1`, the cytotoxicity at 70.5 h was -11%. In the case of `CC(C)c1nccn1C(C)C(=O)NC1CCN(S(C)(=O)=O)CC1` (stereo not given) it was 3.51%; in that of `O=C(O)[C@@H]1CN(C(=O)c2ccc3nccnc3c2)C[C@H]1c1ccncc1`, -7.07%.

As for `CNS(=O)(=O)c1ccc(CN(C)Cc2nc3ccc(F)cc3[nH]2)cc1`, the cytotoxicity at 70.5 h was -4.95%.

Turning to `CC(=O)N1CCCN(c2nccc(-c3c(C)nn(C)c3C)n2)CC1`, the cytotoxicity at 70.5 h was -3.87%. For the molecule `CCNc1nc(C)c(C(=O)N(C)Cc2nc(-c3ccncc3)no2)s1`, the cytotoxicity at 70.5 h came to 1.19%.

For the molecule `CCN(CC)C1CCN(c2nccc(C3CCCC3)n2)C1` (stereo not given), the cytotoxicity at 70.5 h is -13.5%. `O=C(c1ccc2cccc(F)c2n1)N1CCN(CCn2cncn2)CC1`: the cytotoxicity at 70.5 h was -9.3%. Consider `N#Cc1ccccc1CN1CCC(c2nccn2CC2CCC2)CC1`, for which the cytotoxicity at 70.5 h is -1.95%.

For `CCCc1nnc(NC2CCN(CCO)CC2)o1`, the cytotoxicity at 70.5 h is -6.74%. In the case of `Cc1nc(N)cc(NCc2csc(N(C)C)n2)n1` it was -4.3%.
